Source: US8883790B2, “Pharmaceutical combinations” (Astex Therapeutics Limited, priority 2006, dated 2014)
Where a name gives a salt, the structure may show the parent alone. Blank lines part the entries; values can stand above or below the compound they belong to.

What was measured:
[1] = Solubility of acid addition salts in a liquid carrier (e.g. water); settings: salts of 1-(2,6-difluorophenyl)-N-[3-(5-morpholin-4-ylmethyl-1H-benzimidazol-2-yl)-1H-pyrazol-4-yl]-urea
[2] = Solid-state and dissolution properties of the L-lactate salt of the compound of formula (1) and its crystalline forms; assay type: physicochemical; settings: for stability of crystalline form: crystalline forms of the L-lactate salt of the compound of formula (1)
From the text: The lactic acid salts of the compound of formula (1) exist in one unstable form (FL3) and two stable forms (FL1 and FL2).

[3] = antitumour agent; cited from earlier work
HCT116 cell line = assay: Anti-proliferative activity, Alamar Blue assay; assay type: cell-based; settings: Homo sapiens, HCT-116, 72 h
Description: The anti-proliferative activities of compounds for use in the combinations of the invention can be determined by measuring the ability of the compounds to inhibition of cell growth in a number of cell lines such as the human colon cancer cell line HCT116. […] The method is based on the ability of viable cells to reduce resazurin to its fluorescent product resorufin. […] The number of viable cells is determined by Alamar Blue assay as before. Cell lines can be obtained from the ECACC (European Collection of cell Cultures).

[4] = target: T1, Human Hsp90a N-terminal domain (Homo sapiens, UniProt P07900); assay: Isothermal titration calorimetry (ITC) binding to human Hsp90; settings: pH 7.4
T1 construct: purification of the Human Hsp90a N-terminal domain; made in house
Description: The ability of the compounds for use in the combinations of the invention to bind to human Hsp90 proteins was determined using isothermal titration calorimetry.
Isothermal titration calorimetry (ITC) experiments were performed with a VP-ITC titration calorimeter (Microcal Inc., Northampton, Mass., USA). […] All solutions were filtered and degassed prior to a titration being carried out. The enthalpy change resulting from each injection of ligand was obtained through integration of the calorimetric signal. Data were analysed using Origin 7.0 (Microcal Software Inc., Northampton, Mass.). Heats of dilution were estimated using the final injections of each individual titration and subtracted before data fitting. Different ITC experimental formats were employed in order to obtain compound dissociation constants (Kd's) over a wide range of affinities. […] In this type of experiment the stoichiometry parameter (N) was locked at 1 for data fitting.

[5] = assay type: physicochemical
From the text: Samples for X-ray powder diffraction (XRPD) data collection were gently ground by marble mortar and loaded into a crystallographic capillary (from Hampton Research, Quartz or Glass Type 10, 0.4 or 0.7 mm diameter). Diffraction patterns were collected at room temperature using CuKa radiation (λ=1.5418 Å) from a Rigaku rotating anode RU3HR, Osmic blue confocal optics, ¼ c goniometer and a Rigaku HTC image plate detector. 2D Images were collected while spinning φ axis with a detector to crystal distance of 250 mm. Data collection was controlled by CrystalClear software and 2D images were converted to 1D plot (20 vs. Intensity) by Datasqueeze (intensity averaged over the azimuthal angle 0<χ<360° for 2θ range 3-30° in 0.02° steps). In house program AstexXRPD was used for manipulation and visualisation of 1D XRPD patterns.
It is nominally a tri-hydrate because there are 3 crystal water positions in the asymmetric unit, but they are not 100% occupied at room temperature and laboratory humidity. A saturated solution of form FL1 in methanol:water 9:1 was prepared at room temperature. Slow precipitation with approximately 4 volumes of acetone gave form FL2 which is stable in air.
A saturated solution of form FL1 in THF was prepared at room temperature. Slow precipitation with approximately 4 volumes of heptane gave form FL3.

[6] = clinical studies; cited from earlier work
PKG = settings: cited from earlier work
PKC = settings: cited from earlier work
OVCAR-3 tumour cells = OVCAR-3 tumour cells in which PKB is amplified; concentrations of 50 and 100 microM; cited from earlier work
[7] = mice; doses 10 times more than were needed for antitumour activity; cited from earlier work
[8] = tested on: Acute Promyelocytic Leukemia (APL); settings: APL patients; cited from earlier work
[9] = Physicochemical properties of the crystalline lactate salt of compound (AA)
[10] = tested on: P-glycoprotein-overexpressing subline of CCRF-CEM; settings: cited from earlier work
tubulin = settings: relative to epothilone A or paclitaxel; cited from earlier work
[11] = lactate (particularly L-lactate) salt of compound (AA)

Compound: 1-(2,6-difluorophenyl)-N-[3-(5-morpholin-4-ylmethyl-1H-benzimidazol-2-yl)-1H-pyrazol-4-yl]-urea [D-glucuronate]
- solubility [1]: greater than 25 mg/ml

- hygroscopicity ([2]; L-lactate of (2,4-dihydroxy-5-isopropyl-phenyl)-[5-(4-methyl-piperazin-1-ylmethyl)-1,3-dihydro-isoindol-2-yl]-methanone): non-hygroscopic
Compound: CC(C)c1cc(C(=O)N2Cc3ccc(CN4CCN(C)CC4)cc3C2)c(O)cc1O [(2,4-dihydroxy-5-isopropyl-phenyl)-[5-(4-methyl-piperazin-1-ylmethyl)-1,3-dihydro-isoindol-2-yl]-methanone]
- rate of solubility ([2]; compared with free base and hydrochloric and sulphuric acid salts): better rate of solubility than the free base and other salts tested

Compound: CCN[C@H]1CO[C@@H](O[C@H]2[C@H](O[C@H]3C#C/C=C\C#C[C@]4(O)CC(=O)C(NC(=O)OC)=C3/C4=C\CSSSC)O[C@H](C)[C@@H](NO[C@H]3C[C@H](O)[C@H](SC(=O)c4c(C)c(I)c(O[C@@H]5O[C@@H](C)[C@H](O)[C@@H](OC)[C@H]5O)c(OC)c4OC)[C@@H](C)O3)[C@@H]2O)C[C@@H]1OC [Calicheamicin]
- potency relative to adriamycin [3]: over 1,000 times

- IC50 (HCT116 cell line): < 1000 nM
Compound: CC(C)c1cc(C(=O)N2Cc3ccccc3C2)c(O)cc1O [Example 5, (1,3-Dihydro-isoindol-2-yl)-(2,4-dihydroxy-5-isopropyl-phenyl)-methanone]

Compound: CC(C)c1cc(C(=O)N2Cc3ccc(C(=O)N4CCNCC4)cc3C2)c(O)cc1O [Example 54, (2,4-dihydroxy-5-isopropyl-phenyl)-[5-(piperazine-1-carbonyl)-1,3-dihydro-isoindol-2-yl]-methanone hydrochloride]
- IC50 (HCT116 cell line): < 1000 nM

- Kd [4]: < 100 nM
Compound: CC(C)c1cc(C(=O)N2Cc3ccc(CN4CCN(C)CC4)cc3C2)c(O)cc1O [Example 55, (2,4-dihydroxy-5-isopropyl-phenyl)-[5-(4-methyl-piperazin-1-ylmethyl)-1,3-dihydro-isoindol-2-yl]-methanone]

- stability of crystalline form [2]: stable
Compound: CC(C)c1cc(C(=O)N2Cc3ccc(CN4CCN(C)CC4)cc3C2)c(O)cc1O [FL1, (2,4-dihydroxy-5-isopropyl-phenyl)-[5-(4-methyl-piperazin-1-ylmethyl)-1,3-dihydro-isoindol-2-yl]-methanone L-lactate]
- Stability of crystal form [5]: stable in air and at 40 °C and 75% RH for at least one month

- Stability of crystal form [5]: stable in air
- stability of crystalline form [2]: stable hydrate
Compound: CC(C)c1cc(C(=O)N2Cc3ccc(CN4CCN(C)CC4)cc3C2)c(O)cc1O [FL2, (2,4-dihydroxy-5-isopropyl-phenyl)-[5-(4-methyl-piperazin-1-ylmethyl)-1,3-dihydro-isoindol-2-yl]-methanone L-lactate]

- Stability of crystal form [5]: transforms in air into form FL1
- Crystal form by XRPD after drying in air ([5]; sample dried in air for 2 days): conversion to form FL1 had occurred
- stability of crystalline form [2]: unstable
Compound: CC(C)c1cc(C(=O)N2Cc3ccc(CN4CCN(C)CC4)cc3C2)c(O)cc1O [FL3, (2,4-dihydroxy-5-isopropyl-phenyl)-[5-(4-methyl-piperazin-1-ylmethyl)-1,3-dihydro-isoindol-2-yl-]-methanone L-lactate]

Compound: CCCCCCCCCCCCCCCCCCOP(=O)([O-])OC1CC[N+](C)(C)CC1 [KRX-0401, Perifosine]
- half-life [6]: ~100 h

Compound: O=S(=O)(NCCNCC=C(c1ccccc1)c1ccccc1)c1cccc2cnccc12 [NL-71-101]
- IC50 (PKG): 36000 nM
- IC50 (PKC): 104000 nM
- apoptosis induction (OVCAR-3 tumour cells): induced apoptosis

Compound: CCOC(=O)c1ccc2[nH]c3c(OC)c4[nH]c5ccc(C(=O)OCC)cc5c4cc3c2c1 [SR-13668]
- adverse effects [7]: no adverse effects

Compound: CC1=C(/C=C/C(C)=C/C=C/C(C)=C/C(=O)O)C(C)(C)CCC1 [Tretinoin, all-trans retinoic acid]
- remissions induced [8]: 64-100%

- hygroscopicity ([9]; lactate (particularly L-lactate) salt of 1-cyclopropyl-3-[3-(5-morpholin-4-ylmethyl-1H-benzoimidazol-2-yl)-1H-pyrazol-4-yl]-urea (compound (AA))): non-hygroscopic
- solubility in water [9, 11]: good solubility in water
- storage stability [9, 11]: stable to storage
Compound: CC(C)c1cc(C(=O)N2Cc3ccc(CN4CCN(C)CC4)cc3C2)c(O)cc1O [crystalline lactate salt, (2,4-dihydroxy-5-isopropyl-phenyl)-[5-(4-methyl-piperazin-1-ylmethyl)-1,3-dihydro-isoindol-2-yl]-methanone]

Compound: C/C1=C/C[C@@H](/C(C)=C/c2csc(C)n2)OC(=O)C[C@H](O)C(C)(C)C(=O)[C@H](C)[C@@H](O)[C@@H](C)CCC1 [desoxyepothilone B]
- IC50 [10]: 17 nM

Compound: C/C(=C\c1csc(C)n1)[C@@H]1C[C@@H]2O[C@]2(C)CCC[C@H](C)[C@H](O)[C@@H](C)C(=O)C(C)(C)[C@@H](O)CC(=O)O1 [epothilone B]
- potency in inducing tubulin polymerization in vitro (tubulin): approximately twice as potent as epothilone A or paclitaxel

- solid-state stability in conditions of high relative humidity ([9]; lactate salt of compound (AA), gravimetric vapour sorption): stable anhydrous crystalline form
Compound: CC(C)c1cc(C(=O)N2Cc3ccc(CN4CCN(C)CC4)cc3C2)c(O)cc1O [lactate salt, (2,4-dihydroxy-5-isopropyl-phenyl)-[5-(4-methyl-piperazin-1-ylmethyl)-1,3-dihydro-isoindol-2-yl]-methanone]
